Laboratory results: ChEMBL document CHEMBL1201862, “PubChem BioAssay data set” (2004)
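Tested at 5 concentrations; 48 h exposure; 96-well plates; endpoints linearly interpolated, else capped at highest concentration. Abbreviation: GI50, concentration required for 50% inhibition of growth.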 Active and inactive are the calls of the source. Rule as the data show it: active = GI50 up to about 1.1 µM and inactive = higher.

What was measured:
Assay in all cases: DTP human tumour cell line panel, 48 h
[1] = system: DLD-1
[2] = system: DMS-114
[3] = system: HOP-18
[4] = system: KM-20L2
[5] = system: LXFL 529
[6] = system: M19-MEL
[7] = system: RXF 631
[8] = system: DMS-273
[9] = system: SNB-78

Structure (SMILES) | GI50 [1] | GI50 [2] | GI50 [3] | GI50 [4] | GI50 [5] | GI50 [6] | GI50 [7] | GI50 [8] | GI50 [9]
CCCCOC(=O)NC(=O)c1cn(CCCOC(=O)CCCCCCCCC(=O)OCCCn2cc(C(=O)NC(=O)OCCCC)c(=O)[nH]c2=O)c(=O)[nH]c1=O | > 100 µM (inactive) | > 100 µM (inactive) | 24.9 µM (inactive) | > 100 µM (inactive) | > 100 µM (inactive) | > 100 µM (inactive) | 98.6 µM (inactive) | – | –
COC(=O)C(=C/c1ccc(OC)cc1)/C(C(=O)O)=C(/C)c1ccccc1 | > 100 µM (inactive) | – | > 100 µM (inactive) | > 100 µM (inactive) | > 100 µM (inactive) | > 100 µM (inactive) | – | > 100 µM (inactive) | > 100 µM (inactive)
Cc1cc(Cl)ccc1NC(=O)CCCC(=O)C1C/C(=N/O)CC/C1=N\O (stereo not given) | > 100 µM (inactive) | > 100 µM (inactive) | > 100 µM (inactive) | > 100 µM (inactive) | > 100 µM (inactive) | > 100 µM (inactive) | > 100 µM (inactive) | > 100 µM (inactive) | > 100 µM (inactive)
COc1c(I)c(OC)c2c(c1I)O[C@@H]1OCC[C@H]21 | > 100 µM (inactive) | 26.5 µM (inactive) | 24.3 µM (inactive) | 65.3 µM (inactive) | 26.9 µM (inactive) | 23.8 µM (inactive) | 29.9 µM (inactive) | 23.1 µM (inactive) | 57.9 µM (inactive)
O=[N+]([O-])c1ccc(N=P(c2ccccc2)(c2ccccc2)c2ccccc2)n2nnnc12 | – | 72.3 µM (inactive) | > 100 µM (inactive) | > 100 µM (inactive) | 48.3 µM (inactive) | 82 µM (inactive) | – | > 100 µM (inactive) | –
C#CC(C)(C)Oc1cc(O)c2c(=O)c3ccccc3n(C)c2c1 | – | > 100 µM (inactive) | > 100 µM (inactive) | > 100 µM (inactive) | > 100 µM (inactive) | – | > 100 µM (inactive) | 23.1 µM (inactive) | > 100 µM (inactive)
C=C1C(=O)OC2C/C(C)=C/CC/C(C)=C/CCC3(COC(C)=O)OC3CC12 (stereo not given) | 3.81 µM (inactive) | 4.09 µM (inactive) | 11.2 µM (inactive) | 6.93 µM (inactive) | 2.77 µM (inactive) | 13.1 µM (inactive) | – | 3.87 µM (inactive) | 7.71 µM (inactive)
Cc1ccccc1-n1c(CCl)nc2ccc(Br)cc2c1=O | 3.82 µM (inactive) | 7.46 µM (inactive) | 22.9 µM (inactive) | 17.8 µM (inactive) | 0.887 µM (active) | 6.15 µM (inactive) | 16.9 µM (inactive) | 26 µM (inactive) | 18.2 µM (inactive)
O=C(Nc1ccccc1C(=O)NC(=O)c1ccccc1NC(=O)c1ccccc1)c1ccccc1 | 12.5 µM (inactive) | 2.17 µM (inactive) | 4.49 µM (inactive) | 3.15 µM (inactive) | – | – | – | 2.29 µM (inactive) | –
N#Cc1nc(Nc2ccc([N+](=O)[O-])cc2)sc1N | 23.4 µM (inactive) | – | 61.2 µM (inactive) | 23.9 µM (inactive) | 8.69 µM (inactive) | 25.2 µM (inactive) | 11.4 µM (inactive) | 21.2 µM (inactive) | 32.2 µM (inactive)
CCOC(=O)C1C(c2ccc(Cl)cc2Cl)NC(c2ccc(C)cc2)C(C(=O)OC)S1(=O)=O (stereo not given) | > 100 µM (inactive) | – | – | – | 54.6 µM (inactive) | 53.1 µM (inactive) | – | 85.5 µM (inactive) | > 100 µM (inactive)
COc1ccc2nc3cc(Cl)ccc3c(NCCC[N+](C)(C)CCCCCCCCCCCCCCCC[N+](C)(C)CCCNc3c4ccc(Cl)cc4nc4ccc(OC)cc34)c2c1 | 3.11 µM (inactive) | 1.89 µM (inactive) | 2.42 µM (inactive) | 3.3 µM (inactive) | 1.79 µM (inactive) | 1.97 µM (inactive) | 7.14 µM (inactive) | 1.77 µM (inactive) | –
O=C(c1ccccc1)c1nc2ccc(Cl)cc2c2c1Cc1ccccc1-2 | > 100 µM (inactive) | > 100 µM (inactive) | > 100 µM (inactive) | > 100 µM (inactive) | > 100 µM (inactive) | > 100 µM (inactive) | – | > 100 µM (inactive) | –
O=C(NCCCCCCCCCCCCNC(=O)c1cccc2ccccc12)c1cccc2ccccc12 | 51.4 µM (inactive) | > 100 µM (inactive) | > 61.1 µM (inactive) | > 100 µM (inactive) | > 91.4 µM (inactive) | > 100 µM (inactive) | 31.2 µM (inactive) | > 100 µM (inactive) | > 47 µM (inactive)
COc1ccc2c(c1)[n+]([O-])c(/C(C)=N/NC(=O)c1ccccc1O)c(C)[n+]2[O-] | > 100 µM (inactive) | > 100 µM (inactive) | > 100 µM (inactive) | > 100 µM (inactive) | > 100 µM (inactive) | > 100 µM (inactive) | > 100 µM (inactive) | – | > 100 µM (inactive)
C=C1CC2OC(=O)C(=C)C2C(O)C2C(=C)CCC12 (stereo not given) | 10.1 µM (inactive) | 4.55 µM (inactive) | 15.9 µM (inactive) | – | 4.33 µM (inactive) | 5.19 µM (inactive) | – | 8.2 µM (inactive) | 6.56 µM (inactive)
O=C1C2C3C=C4c5ccccc5N(c5ccccc5)C4([C@@H]2C(=O)N1c1ccc(F)cc1)[C@H]1C(=O)N(c2ccc(F)cc2)C(=O)[C@@H]31 (stereo not given in full) | > 100 µM (inactive) | > 100 µM (inactive) | > 100 µM (inactive) | – | – | > 100 µM (inactive) | – | – | 82.2 µM (inactive)
COc1cccc2c1C(=O)c1c(O)c3c(c(O)c1C2=O)C[C@@](O)(/C(C)=N\O)C[C@@H]3OC1CC(N)C(O)C(C)O1 (stereo not given in full) | 1.95 µM (inactive) | 0.371 µM (active) | 2.18 µM (inactive) | 3 µM (inactive) | 0.508 µM (active) | 0.743 µM (active) | 2.24 µM (inactive) | 0.454 µM (active) | 1.28 µM (inactive)
CC(C)N(C(=O)C12C3C4C1C1C2C3C41C(=O)C(C)(C)C)C(C)C (stereo not given) | > 100 µM (inactive) | 52.5 µM (inactive) | – | > 100 µM (inactive) | > 100 µM (inactive) | > 100 µM (inactive) | – | > 100 µM (inactive) | > 100 µM (inactive)
